We go through 6 molecules from patent US7632811B2, “Analogs of parathyroid hormone” (Societe de Conseils de Recherches et D'Applications …, priority 1995, dated 2009).

Non-standard residues stand in square brackets, D forms with d. Residues, ends and D or L forms follow the SMILES beside them. Cha = N[C@@H](CC1CCCCC1)C(=O)O; Nle = CCCC[C@H](N)C(=O)O; Aib = CC(C)(N)C(=O)O

The term Kd denotes the equilibrium constant for the complex coming apart.

The target in this assay is T1, PTH receptor present on SaOS-2 (human osteosarcoma cells) (Homo sapiens, UniProt Q03431).
T1 construct: host or cells: SaOS-2 human osteosarcoma cells (intact, confluent monolayers)
T1 sequence (Q03431 27-593): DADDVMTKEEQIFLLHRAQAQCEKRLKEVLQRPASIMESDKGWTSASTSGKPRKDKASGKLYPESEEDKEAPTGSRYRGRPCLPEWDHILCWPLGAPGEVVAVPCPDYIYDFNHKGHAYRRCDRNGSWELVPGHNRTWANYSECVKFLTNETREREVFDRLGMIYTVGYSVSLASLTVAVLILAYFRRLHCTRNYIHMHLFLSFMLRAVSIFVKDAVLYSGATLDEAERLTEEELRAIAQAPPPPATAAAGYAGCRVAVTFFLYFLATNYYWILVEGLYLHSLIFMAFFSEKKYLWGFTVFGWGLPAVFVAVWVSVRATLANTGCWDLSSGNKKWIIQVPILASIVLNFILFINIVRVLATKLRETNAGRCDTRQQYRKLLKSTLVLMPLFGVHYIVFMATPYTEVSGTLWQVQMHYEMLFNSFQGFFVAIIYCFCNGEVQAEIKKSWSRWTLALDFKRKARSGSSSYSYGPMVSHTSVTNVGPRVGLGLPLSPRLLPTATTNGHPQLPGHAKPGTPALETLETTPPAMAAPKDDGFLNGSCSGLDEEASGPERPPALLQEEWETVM
Put plainly: Binding to PTH receptor on SaOS-2 cells (competition with mono-125I-[Nle8,18,Tyr34(3-125I)]bPTH(1-34)NH2). The settings on record: Table I, 2 hrs at room temperature, read-out: Kd (half maximal inhibition of binding of mono-125I-[Nle8,18, Tyr34(3-125I)]bPTH(1-34)NH2). On the procedure:
A. Binding to PTH Receptor
The peptides of the invention were tested for their ability to bind to the PTH receptor present on SaOS-2 (human osteosarcoma cells). SaOS-2 cells (American Type Culture Collection, Rockville, Md.; ATCC #HTB 85) were maintained in RPMI 1640 medium (Sigma, St. Louis, Mo.) supplemented with 10% fetal bovine serum (FBS) and 2 mM glutamine at 37EC in a humidified atmosphere of 5% CO2 in air. The medium was changed every three or four days, and the cells were subcultured every week by trypsinization.
SaOS-2 cells were maintained for four days until they had reached confluence. The medium was replaced with 5% FBS in RPMI 1640 medium and incubated for 2 hrs at room temperature with 10×10^4 cpm mono-^125I-[Nle^8,18, Tyr^34(3-^125I)]bPTH(1-34)NH2 in the presence of a competing peptides of the invention at various concentrations between 10^−11 M to 10^−4 M. The cells were washed four times with ice-cold PBS and lysed with 0.1 M NaOH, and the radioactivity associated with the cells was counted in a scintillation counter. Synthesis of mono-^125I-[Nle^8,18, Tyr^34(3-^125I)]bPTH(1-34)NH2 was carried out as described in Goldman, M. E., et al., Endocrinol., 123:1468 (1988).
The binding assay was conducted with various peptides of the invention, and the Kd value (half maximal inhibition of binding of mono-^125I-[Nle^8,18, Tyr^34(3-^125I)]bPTH(1-34)NH2) for each peptide was calculated.
For `CC[C@H](C)[C@H](NC(=O)[C@H](CCC(=O)O)NC(=O)[C@H](CO)NC(=O)[C@@H](NC(=O)[C@@H](N)CO)C(C)C)C(=O)N[C@@H](CCC(N)=O)C(=O)N[C@@H](CC1CCCCC1)C(=O)N[C@@H](CCSC)C(=O)N[C@@H](Cc1c[nH]cn1)C(=O)N[C@@H](CC(N)=O)C(=O)N[C@@H](CC1CCCCC1)C(=O)NCC(=O)N[C@@H](CCCCN)C(=O)N[C@@H](Cc1c[nH]cn1)C(=O)N[C@@H](CC(C)C)C(=O)N[C@@H](CC(N)=O)C(=O)N[C@@H](CO)C(=O)N[C@@H](CCSC)C(=O)N[C@@H](CCC(=O)O)C(=O)N[C@@H](CCCNC(=N)N)C(=O)N[C@H](C(=O)N[C@@H](CCC(=O)O)C(=O)N[C@@H](Cc1c[nH]c2ccccc12)C(=O)N[C@@H](CC(C)C)C(=O)N[C@@H](CCCNC(=N)N)C(=O)N[C@@H](CCCCN)C(=O)N[C@@H](CCCCN)C(=O)N[C@@H](CC(C)C)C(=O)N[C@@H](CCC(N)=O)C(=O)N[C@@H](CC(=O)O)C(=O)N[C@H](C(=O)N[C@@H](Cc1c[nH]cn1)C(=O)N[C@@H](CC(N)=O)C(=O)N[C@@H](Cc1ccccc1)C(N)=O)C(C)C)C(C)C` [[Cha^7,11]hPTH(1-34)NH2] (H-SVSEIQ[Cha]MHN[Cha]GKHLNSMERVEWLRKKLQDVHNF-NH2), the Kd stood at 10 nM. For the molecule `CCCC[C@H](NC(=O)[C@H](CC1CCCCC1)NC(=O)[C@H](CCC(N)=O)NC(=O)[C@@H](NC(=O)[C@H](CCC(=O)O)NC(=O)[C@H](CO)NC(=O)[C@@H](NC(=O)[C@@H](N)CO)C(C)C)[C@@H](C)CC)C(=O)N[C@@H](Cc1c[nH]cn1)C(=O)N[C@@H](CC(N)=O)C(=O)N[C@@H](CC1CCCCC1)C(=O)NCC(=O)N[C@@H](CCCCN)C(=O)N[C@@H](Cc1c[nH]cn1)C(=O)N[C@@H](CC(C)C)C(=O)NC(C)(C)C(=O)N[C@@H](CO)C(=O)N[C@@H](CCCC)C(=O)NC(C)(C)C(=O)N[C@@H](CCCNC(=N)N)C(=O)N[C@H](C(=O)N[C@@H](CCC(=O)O)C(=O)N[C@@H](Cc1c[nH]c2ccccc12)C(=O)N[C@@H](CC(C)C)C(=O)N[C@@H](CCCNC(=N)N)C(=O)N[C@@H](CCCCN)C(=O)N[C@@H](CCCCN)C(=O)N[C@@H](CC(C)C)C(=O)N[C@@H](CCC(N)=O)C(=O)N[C@@H](CC(=O)O)C(=O)N[C@H](C(=O)N[C@@H](Cc1c[nH]cn1)C(=O)N[C@@H](CC(N)=O)C(=O)N[C@@H](Cc1ccc(O)cc1)C(N)=O)C(C)C)C(C)C` [[Cha^7,11, Nle^8,18, Aib^16,19, Tyr^34]hPTH (1-34)NH2] (H-SVSEIQ[Cha][Nle]HN[Cha]GKHL[Aib]S[Nle][Aib]RVEWLRKKLQDVHNY-NH2), the Kd was found to be 5 nM. On to `CC[C@H](C)[C@H](NC(=O)[C@H](CCC(=O)O)NC(=O)[C@H](CO)NC(=O)[C@@H](NC(=O)[C@@H](N)CO)C(C)C)C(=O)N[C@@H](CCC(N)=O)C(=O)N[C@@H](CC(C)C)C(=O)N[C@@H](CCSC)C(=O)N[C@@H](Cc1c[nH]cn1)C(=O)N[C@@H](CC(N)=O)C(=O)N[C@@H](CC(C)C)C(=O)NCC(=O)N[C@@H](CCCCN)C(=O)N[C@@H](Cc1c[nH]cn1)C(=O)N[C@@H](CC(C)C)C(=O)N[C@@H](CC(N)=O)C(=O)N[C@@H](CO)C(=O)N[C@@H](CCSC)C(=O)N[C@@H](CCC(=O)O)C(=O)N[C@@H](CCCNC(=N)N)C(=O)N[C@H](C(=O)N[C@@H](CCC(=O)O)C(=O)N[C@@H](CC1CCCCC1)C(=O)N[C@@H](CC(C)C)C(=O)N[C@@H](CCCNC(=N)N)C(=O)N[C@@H](CCCCN)C(=O)N[C@@H](CCCCN)C(=O)N[C@@H](CC(C)C)C(=O)N[C@@H](CCC(N)=O)C(=O)N[C@@H](CC(=O)O)C(=O)N[C@H](C(=O)N[C@@H](Cc1c[nH]cn1)C(=O)N[C@@H](CC(N)=O)C(=O)N[C@@H](Cc1ccccc1)C(N)=O)C(C)C)C(C)C` [[Cha^23]hPTH(1-34)NH2] (H-SVSEIQLMHNLGKHLNSMERVE[Cha]LRKKLQDVHNF-NH2), for which the Kd is 200 nM. `CC[C@H](C)[C@H](NC(=O)[C@H](CCC(=O)O)NC(=O)[C@H](CO)NC(=O)[C@@H](NC(=O)[C@@H](N)CO)C(C)C)C(=O)N[C@@H](CCC(N)=O)C(=O)N[C@@H](CC(C)C)C(=O)N[C@@H](CCSC)C(=O)N[C@@H](Cc1c[nH]cn1)C(=O)N[C@@H](CC(N)=O)C(=O)N[C@@H](CC(C)C)C(=O)NC(C)(C)C(=O)N[C@@H](CCCCN)C(=O)N[C@@H](Cc1c[nH]cn1)C(=O)N[C@@H](CC(C)C)C(=O)N[C@@H](CC(N)=O)C(=O)N[C@@H](CO)C(=O)N[C@@H](CCSC)C(=O)N[C@@H](CCC(=O)O)C(=O)N[C@@H](CCCNC(=N)N)C(=O)N[C@H](C(=O)N[C@@H](CCC(=O)O)C(=O)N[C@@H](Cc1c[nH]c2ccccc12)C(=O)N[C@@H](CC(C)C)C(=O)N[C@@H](CCCNC(=N)N)C(=O)N[C@@H](CCCCN)C(=O)N[C@@H](CCCCN)C(=O)N[C@@H](CC(C)C)C(=O)N[C@@H](CCC(N)=O)C(=O)N[C@@H](CC(=O)O)C(=O)N[C@H](C(=O)N[C@@H](Cc1c[nH]cn1)C(=O)N[C@@H](CC(N)=O)C(=O)N[C@@H](Cc1ccccc1)C(N)=O)C(C)C)C(C)C` [[Aib^12]hPTH(1-34)NH2] (H-SVSEIQLMHNL[Aib]KHLNSMERVEWLRKKLQDVHNF-NH2): the Kd was determined as 5 nM.

As for `CC[C@H](C)[C@H](NC(=O)[C@H](CCC(=O)O)NC(=O)[C@H](CO)NC(=O)[C@@H](NC(=O)[C@@H](N)CO)C(C)C)C(=O)N[C@@H](CCC(N)=O)C(=O)N[C@@H](CC(C)C)C(=O)N[C@@H](CCSC)C(=O)N[C@@H](Cc1c[nH]cn1)C(=O)N[C@@H](CC(N)=O)C(=O)N[C@@H](CC(C)C)C(=O)NCC(=O)N[C@@H](CCCCN)C(=O)N[C@@H](Cc1c[nH]cn1)C(=O)N[C@@H](CC(C)C)C(=O)N[C@@H](CC(N)=O)C(=O)N[C@@H](CO)C(=O)N[C@@H](CCSC)C(=O)N[C@@H](CCC(=O)O)C(=O)N[C@@H](CCCNC(=N)N)C(=O)N[C@H](C(=O)N[C@@H](CCC(=O)O)C(=O)N[C@@H](Cc1c[nH]c2ccccc12)C(=O)N[C@@H](CC1CCCCC1)C(=O)N[C@@H](CCCNC(=N)N)C(=O)N[C@@H](CCCCN)C(=O)N[C@@H](CCCCN)C(=O)N[C@@H](CC1CCCCC1)C(=O)N[C@@H](CCC(N)=O)C(=O)N[C@@H](CC(=O)O)C(=O)N[C@@H](CC1CCCCC1)C(=O)N[C@@H](Cc1c[nH]cn1)C(=O)N[C@@H](CC(N)=O)C(=O)N[C@@H](Cc1ccccc1)C(N)=O)C(C)C` [[Cha^24,28,31]hPTH(1-34)NH2] (H-SVSEIQLMHNLGKHLNSMERVEW[Cha]RKK[Cha]QD[Cha]HNF-NH2), the Kd came to 1000 nM. As to `CC[C@H](C)[C@H](NC(=O)[C@H](CCC(=O)O)NC(=O)[C@H](CO)NC(=O)[C@@H](NC(=O)[C@@H](N)CO)C(C)C)C(=O)N[C@@H](CCC(N)=O)C(=O)N[C@@H](CC(C)C)C(=O)N[C@@H](CCSC)C(=O)N[C@@H](Cc1c[nH]cn1)C(=O)N[C@@H](CC(N)=O)C(=O)N[C@@H](CC(C)C)C(=O)NCC(=O)N[C@@H](CCCCN)C(=O)N[C@@H](Cc1c[nH]cn1)C(=O)N[C@@H](CC(C)C)C(=O)N[C@@H](CC(N)=O)C(=O)N[C@@H](CO)C(=O)N[C@@H](CCSC)C(=O)N[C@@H](CCC(=O)O)C(=O)N[C@@H](CCCNC(=N)N)C(=O)N[C@H](C(=O)N[C@@H](CCC(=O)O)C(=O)N[C@@H](Cc1c[nH]c2ccccc12)C(=O)N[C@@H](CC(C)C)C(=O)N[C@@H](CCCNC(=N)N)C(=O)N[C@@H](CCCCN)C(=O)N[C@@H](CCCCN)C(=O)N[C@@H](CC1CCCCC1)C(=O)N[C@@H](CCC(N)=O)C(=O)N[C@@H](CC(=O)O)C(=O)N[C@@H](CC1CCCCC1)C(=O)N[C@@H](Cc1c[nH]cn1)C(=O)N[C@@H](CC(N)=O)C(=O)N[C@@H](Cc1ccccc1)C(N)=O)C(C)C` [[Cha^28,31]hPTH(1-34)NH2] (H-SVSEIQLMHNLGKHLNSMERVEWLRKK[Cha]QD[Cha]HNF-NH2), the Kd came to 60 nM.
